Measured values: article PMC10527014 (Antiviral research, 2023)
≈ marks a conversion by molar mass, not a printed value. Entries after “also recorded” stand apart in the source; their conditions may differ. Like-named read-outs stand apart in the source and are kept apart here.

Columns and labels:
[1] = system: Human Echovirus-11 Gregory; settings: read-out: 50% Effective concentration EC50, RD, lowest concentration tested 0.032 μM
CYP1A2 = CYP1A2 (Homo sapiens, UniProt P05177); experiment: CYP inhibition, CYP1A2; assay type: in vitro ADME; settings: read-out: CYP inhibition
[2] = system: Human Echovirus-30 Bastianni; settings: read-out: 50% Effective concentration EC50, RD, lowest concentration tested 0.032 μM
Solubility = assay type: physicochemical
[3] = Human liver microsomes stability; assay type: in vitro ADME
EV-71 Tainan/4643/98 = settings: read-out: 50% Effective concentration EC50; EV-71 Tainan/4643/98, Vero 76, CPE
[4] = system: EVD68, strain IL/14-18952 (IL52); experiment: Preliminary EVD68 inhibition at single concentration, VP1 qPCR in RD cells; assay type: cell-based, EV-D68; settings: 5 μM, preliminary work, Fig. S2
CYP2C19 = CYP2C19 (Homo sapiens, UniProt P33261); experiment: CYP inhibition, CYP2C19; assay type: in vitro ADME; settings: read-out: CYP inhibition
SARS-CoV-2 USA/WA1/2020 = experiment: CPE reduction assay, SARS-CoV-2 USA/WA1/2020; assay type: cell-based; settings: read-out: 50% Effective concentration EC50; SARS-CoV-2 USA/WA1/2020, Vero 76, CPE
[5] = system: EV-D68 MP30 PP (mouse-adapted); experiment: EV-D68 neurological infection; assay type: in vivo, AG129 mice; settings: for Mean day of death: placebo 5.5 days
[6] = Maximum tolerated dose study in AG129 mice; assay type: in vivo
[7] = system: EV-D68 MP30 PP (mouse-adapted US/MO/14-18949); experiment: EV-D68 respiratory infection model in four-week-old AG129 mice; assay type: in vivo
hERG = hERG (Homo sapiens, UniProt Q12809); experiment: hERG inhibition; settings: read-out: hERG inhibition IC50
EV-D68 US/MO/14-18949 = settings: read-out: 50% Effective concentration EC50; EV-D68 US/MO/14-18949, RD; n=3, 4 concentrations (log10 dilution series)
EV-D68 = experiment: In vitro inhibition of EV-D68; assay type: cell-based; settings: read-out: EC50 against EV-D68; discussion
[8] = Mouse plasma protein binding; assay type: in vitro ADME
CYP2D6 = CYP2D6 (Homo sapiens, UniProt P10635); experiment: CYP inhibition, CYP2D6; assay type: in vitro ADME; settings: read-out: CYP inhibition
EV-D68 US/KY/14-18953 [9] = settings: read-out: 50% Effective concentration EC50; EV-D68 US/KY/14-18953, RD, CPE
CYP3A4 [10] = settings: 1 μM, rifampicin as positive control, previously tested
[11] = system: Human Echovirus-30 Bastianni; experiment: Virus yield reduction assay, Human Echovirus-30 Bastianni; assay type: cell-based; settings: read-out: 90% Effective concentration EC90, RD, lowest concentration tested 0.032 μM
Polio virus 1 Mahoney = assay type: cell-based; settings: read-out: 50% Effective concentration EC50, Vero 76, CPE
[12] = system: Influenza H1N1 California/07/2009; experiment: Virus yield reduction assay, Influenza H1N1 California/07/2009; assay type: cell-based; settings: read-out: 90% Effective concentration EC90, Influenza H1N1 California/07/2009, MDCK
Mouse plasma stability = assay type: in vitro ADME; settings: @ 5 hr, 37°C
MDCK = experiment: Cytotoxicity; assay type: cell-based; settings: read-out: 50% Cytotoxic concentration CC50, line of Influenza H1N1
Human plasma stability = assay type: in vitro ADME; settings: @ 5 hr, 37°C
[13] = Human plasma protein binding; assay type: in vitro ADME
Vero = experiment: Cytotoxicity; assay type: cell-based; settings: read-out: 50% Cytotoxic concentration CC50, line of Coxsackie B5
Coxsackievirus B5 (CVB5) = experiment: CVB5 CPE rescue; assay type: cell-based
[14] = system: Human Echovirus-11 Gregory; experiment: Virus yield reduction assay, Human Echovirus-11 Gregory; assay type: cell-based; settings: read-out: 90% Effective concentration EC90, RD, lowest concentration tested 0.032 μM
CYP3A4 [15] = biological target: CYP3A4 (Homo sapiens, UniProt P08684)
EV-D68 US/KY/14-18953 [16] = experiment: Virus yield reduction assay, EV-D68 US/KY/14-18953; assay type: cell-based; settings: read-out: 90% Effective concentration EC90, EV-D68 US/KY/14-18953, RD

Sequence of CYP3A4 (Homo sapiens, UniProt P08684) (P08684 whole entry): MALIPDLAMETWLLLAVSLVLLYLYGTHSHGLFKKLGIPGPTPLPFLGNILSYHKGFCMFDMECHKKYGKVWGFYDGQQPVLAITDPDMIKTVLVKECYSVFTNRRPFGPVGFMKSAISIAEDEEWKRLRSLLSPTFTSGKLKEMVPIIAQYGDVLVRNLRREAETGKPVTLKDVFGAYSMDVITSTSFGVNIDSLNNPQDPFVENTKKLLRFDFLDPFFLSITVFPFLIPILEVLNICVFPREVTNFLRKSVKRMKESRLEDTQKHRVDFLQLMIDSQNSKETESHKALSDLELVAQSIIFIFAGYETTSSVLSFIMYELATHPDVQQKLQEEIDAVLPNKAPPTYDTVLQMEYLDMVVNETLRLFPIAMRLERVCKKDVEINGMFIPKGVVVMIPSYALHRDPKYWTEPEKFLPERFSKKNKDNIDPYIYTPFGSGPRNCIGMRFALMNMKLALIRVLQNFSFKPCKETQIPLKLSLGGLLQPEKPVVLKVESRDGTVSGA
Sequence of CYP1A2 (P05177 whole entry): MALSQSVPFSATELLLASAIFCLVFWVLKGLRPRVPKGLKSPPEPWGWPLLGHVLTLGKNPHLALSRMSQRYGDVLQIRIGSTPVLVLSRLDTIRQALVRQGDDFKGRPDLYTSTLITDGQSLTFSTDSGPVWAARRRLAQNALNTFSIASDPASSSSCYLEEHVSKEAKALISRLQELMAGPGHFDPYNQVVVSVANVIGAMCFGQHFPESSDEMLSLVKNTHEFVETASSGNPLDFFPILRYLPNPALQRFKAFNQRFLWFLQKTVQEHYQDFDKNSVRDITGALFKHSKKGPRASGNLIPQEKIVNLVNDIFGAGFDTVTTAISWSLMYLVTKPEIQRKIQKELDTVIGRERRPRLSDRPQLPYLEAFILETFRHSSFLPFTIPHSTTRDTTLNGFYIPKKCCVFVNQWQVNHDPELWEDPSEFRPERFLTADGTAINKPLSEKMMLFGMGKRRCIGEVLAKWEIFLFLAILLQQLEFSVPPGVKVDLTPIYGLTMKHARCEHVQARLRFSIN
Sequence of hERG (Q12809 whole entry): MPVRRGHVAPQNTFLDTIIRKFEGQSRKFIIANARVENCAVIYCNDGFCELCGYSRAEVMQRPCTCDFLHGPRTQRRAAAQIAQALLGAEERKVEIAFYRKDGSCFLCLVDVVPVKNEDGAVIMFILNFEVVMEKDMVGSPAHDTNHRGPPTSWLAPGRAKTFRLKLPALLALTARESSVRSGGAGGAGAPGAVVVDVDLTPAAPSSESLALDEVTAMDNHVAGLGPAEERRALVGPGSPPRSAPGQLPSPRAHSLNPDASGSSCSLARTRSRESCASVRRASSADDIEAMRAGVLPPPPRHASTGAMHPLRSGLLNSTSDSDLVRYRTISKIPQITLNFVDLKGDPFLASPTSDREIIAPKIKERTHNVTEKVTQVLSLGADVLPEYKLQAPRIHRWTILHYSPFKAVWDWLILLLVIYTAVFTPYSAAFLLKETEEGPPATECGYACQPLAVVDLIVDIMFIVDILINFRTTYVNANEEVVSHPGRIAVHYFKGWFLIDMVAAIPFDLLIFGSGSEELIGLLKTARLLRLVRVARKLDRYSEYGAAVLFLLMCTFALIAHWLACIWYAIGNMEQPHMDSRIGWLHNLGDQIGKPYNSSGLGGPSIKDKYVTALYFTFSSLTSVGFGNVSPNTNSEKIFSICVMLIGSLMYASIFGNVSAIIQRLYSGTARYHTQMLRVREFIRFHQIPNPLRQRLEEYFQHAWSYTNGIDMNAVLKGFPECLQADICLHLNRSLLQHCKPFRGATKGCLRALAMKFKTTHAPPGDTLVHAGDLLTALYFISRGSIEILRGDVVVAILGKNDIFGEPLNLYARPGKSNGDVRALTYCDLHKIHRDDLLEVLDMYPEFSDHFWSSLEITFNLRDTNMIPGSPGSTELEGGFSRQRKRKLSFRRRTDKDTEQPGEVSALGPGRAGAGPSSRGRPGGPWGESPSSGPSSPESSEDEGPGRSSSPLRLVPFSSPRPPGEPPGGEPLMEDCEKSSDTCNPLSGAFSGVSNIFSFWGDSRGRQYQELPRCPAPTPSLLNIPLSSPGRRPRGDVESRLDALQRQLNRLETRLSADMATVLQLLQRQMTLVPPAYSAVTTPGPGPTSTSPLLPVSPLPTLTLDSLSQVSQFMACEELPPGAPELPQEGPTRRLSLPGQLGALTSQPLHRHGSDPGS
Sequence of CYP2C19 (P33261 whole entry): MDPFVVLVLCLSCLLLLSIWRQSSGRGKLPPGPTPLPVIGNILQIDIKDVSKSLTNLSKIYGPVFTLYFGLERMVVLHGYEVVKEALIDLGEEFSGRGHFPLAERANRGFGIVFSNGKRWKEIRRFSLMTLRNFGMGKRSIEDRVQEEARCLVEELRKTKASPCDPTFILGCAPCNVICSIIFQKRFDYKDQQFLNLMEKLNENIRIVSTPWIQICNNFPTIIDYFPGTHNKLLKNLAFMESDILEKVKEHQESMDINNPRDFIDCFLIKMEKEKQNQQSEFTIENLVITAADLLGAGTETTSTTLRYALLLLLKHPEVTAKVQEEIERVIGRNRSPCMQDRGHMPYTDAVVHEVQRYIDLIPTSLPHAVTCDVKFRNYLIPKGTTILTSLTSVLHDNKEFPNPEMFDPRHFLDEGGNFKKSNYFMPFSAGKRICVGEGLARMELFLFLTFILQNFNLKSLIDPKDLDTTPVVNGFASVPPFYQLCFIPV
Sequence of CYP2D6 (P10635 whole entry): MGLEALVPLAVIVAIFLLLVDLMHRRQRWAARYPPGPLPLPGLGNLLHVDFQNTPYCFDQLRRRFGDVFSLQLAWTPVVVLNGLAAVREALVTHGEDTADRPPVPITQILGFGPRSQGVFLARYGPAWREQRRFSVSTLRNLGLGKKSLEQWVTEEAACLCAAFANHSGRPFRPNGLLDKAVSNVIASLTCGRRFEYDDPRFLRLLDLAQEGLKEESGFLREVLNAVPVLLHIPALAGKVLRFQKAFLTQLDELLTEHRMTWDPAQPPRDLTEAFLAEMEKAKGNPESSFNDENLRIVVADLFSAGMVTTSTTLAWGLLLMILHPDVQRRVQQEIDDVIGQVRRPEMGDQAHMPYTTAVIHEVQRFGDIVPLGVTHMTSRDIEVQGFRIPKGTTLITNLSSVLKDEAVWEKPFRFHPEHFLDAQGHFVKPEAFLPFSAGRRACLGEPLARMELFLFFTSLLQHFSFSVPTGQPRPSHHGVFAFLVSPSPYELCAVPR

Cc1cc(-c2noc(C(F)(F)F)n2)ccc1OCCCc1cc(C(=O)N(C)C)no1 [compound 11526092, 3-(3-methyl-4-(3-(3-N,N-dimethylcarbamoyl-isoxazol-5-yl)propoxy)phenyl)-5-trifluoromethyl-1,2,4-oxadiazole]
EC50 [1]: < 32 nM | IC50 (CYP1A2): > 50000 nM | EC50 [2]: < 32 nM | Solubility (in words) (Solubility): low solubility | Solubility (Solubility; Buffer pH 7.4): 0.11 µM (≈ 0.0467 µg/mL) | Solubility (Solubility; Fasted State Simulated Gastric Fluid (FaSSGF)): 0.55 µM (≈ 0.233 µg/mL) | Solubility (Solubility; Fasted State Simulated Intestinal Fluid (FaSSIF)): 12.05 µM (≈ 5.11 µg/mL) | Human liver microsomes stability (in words) [3]: metabolically stable | Human liver microsomes T1/2 ([3]; human): 55.3 min | Human liver microsomes clearance ([3]; human): 25.1 μL /min/mg protein | EC50 (EV-71 Tainan/4643/98): 4240 nM | Antiviral effect in RD cells infected with EV-D68 [4]: greatest antiviral effect | IC50 (CYP2C19): 2100 nM | EC50 (SARS-CoV-2 USA/WA1/2020): > 7540 nM | Mean day of death ([5]; 1 mg 11526092-treated group): 6.3 days | Mean day of death ([5]; 3 mg 11526092-treated group): 5.4 days | Mean day of death ([5]; 10 mg 11526092-treated group): 4.3 days | Efficacy in the acute flaccid myelitis neurological infection model ([5]; abstract): did not show efficacy | Neurological scores ([5]; post-challenge study): none of the 1526092-treated mice showed a statistically significant reduction in neurological scores | Protection from challenge infection (in words) ([5]; pre-challenge study): None of the pre-challenge 1526092-treated mice were protected from challenge infection | Maximum tolerated dose ([6]; given IP): > 10 mg/kg | Maximum tolerated dose ([6]; given PO): > 100 mg/kg | Lung concentration of IFN-γ ([7]; 10 mg/kg, day 1): reductions | Lung concentration of IL-10 ([7]; 10 mg/kg, day 5): increase | Lung virus titer ([7]; 30 mg dose, day 5 p.i., P≤0.05 vs placebo): significant reduction | Lung concentration of MIP-1α ([7]; 30 mg/kg, day 5): increase | Lung concentration of MCP-1 ([7]; 100 mg/kg, day 1): reductions | Lung concentration of IL-1α ([7]; 100 mg/kg, day 3): increase | Lung concentration of IL-1β ([7]; 100 mg/kg, day 3): increase | Lung concentration of IL-4 ([7]; 100 mg/kg, day 3): increase | Lung concentration of IL-6 ([7]; 100 mg/kg, day 3): increase | Protection from weight loss (percentage of initial body weight) ([7]; 100 mg/kg/d PO, P<0.05, Fig. S16): significant protection from weight loss | Decrease of viremia ([7]; abstract): 3 log | Lung concentration of RANTES ([7]; all doses, day 1, P≤0.01 - P≤0.0001): significantly reduced | Lung concentration of GM-CSF ([7]; all doses, day 1, P≤0.01 - P≤0.001): significantly reduced | Lung concentration of IL-3 ([7]; all doses, day 1, P≤0.05): significantly reduced | Lung concentration of IL-5 ([7]; all doses, day 1, P≤0.05): significantly reduced | Virus titers in the blood (viremia) ([7]; all doses, days 1 and 3 p.i., P≤0.0001): reduce viremia | Lung virus titers ([7]; day 3 p.i., this study): did not demonstrate any antiviral activity | Reduction in lung titer ([7]; day 5, abstract): 1 log | IC50 (hERG): > 100000 nM | EC50 (EV-D68 US/MO/14-18949): < 100 nM | EC50 (EV-D68): 59 nM | Mouse plasma protein binding, stability [8]: 88.1% | Mouse plasma protein binding, bound ([8]; mouse): 99.8% | IC50 (CYP2D6): > 50000 nM | EC50 (EV-D68 US/KY/14-18953 [9]): 42 nM | CYP3A induction, of control (CYP3A4 [10]): 3 % of control | CYP3A induction (CYP3A4 [10]; single donor in duplicate): 1.2 x | EC90 [11]: < 32 nM | EC50 (Polio virus 1 Mahoney): 570 nM | EC90 [12]: 9400 nM | Mouse plasma stability (Mouse plasma stability): 81.1% @ 5 hr, 37 °C | CC50 (MDCK): 44800 nM | Human plasma stability (Human plasma stability): 93.9% @ 5 hr, 37 °C | Human plasma protein binding, stability [13]: 93.9% | Human plasma protein binding, bound ([13]; human): 99.7% | CC50 (Vero): 59100 nM | EC50 (Coxsackievirus B5 (CVB5); read-out: 50% Effective concentration EC50): 1 nM | EC50 (Coxsackievirus B5 (CVB5); read-out: EC50 against CVB5, Vero cells, text values (Fig. S3)): 1.1 nM | EC90 [14]: < 32 nM | Effect on CYP3A4 (in words) (CYP3A4 [15]; human liver microsomes, at higher concentrations (Fig. S21)): activation (or autoactivation) of CYP3A4; also recorded: * CYP3A4 demonstrates activation with 11526092 | IC50 (CYP3A4 [15]; read-out: CYP inhibition, CYP3A4): > 50000 nM | EC90 (EV-D68 US/KY/14-18953 [16]): 78 nM
